Laboratory results from patent publication US20120202822A1, “COMBINATION” (priority 2009, published 2012).

Columns and labels:
Format in all cases: cell-based
[1] = tested on: 12R8-3; assay: Cell Growth Inhibition Assay (Cell Titer Glo, 3 days); conditions: Homo sapiens, 72 h, 12R8-3 (Compound A resistant clone), read-out: IC50, Single Agent (mean ± std)
Method: (§1) Melanoma A375 PF11 line was derived from A375 (ATCC). 12R5-1, 12R5-3, 12R8-1, 12R8-3, 16R5-2, 16R6-3 and 16R6-4 are single cell clones derived from mixed populations of A375 PF11 cells that were selected to grow in Compound A to concentrations of 1200 and 1600 nM. All lines were cultured in RPMI 1640 medium containing 10% fetal bovine serum (FBS).
(§2) All cells were cultured for a minimum of 72 hours prior to cell plating. Cells were assayed in a 96-well tissue culture plate (NUNC 136102) of RPMI medium containing 10% FBS for all cells at 1,000 cells per well. Approximately 24 hours after plating, cells were exposed to ten, three-fold serial dilutions of compound or the combination of the two agents at a constant molar to molar ratio of 1:10 Compound A to Compound B in RPMI media containing 10% FBS. Cells were incubated in the presence of compounds for 3 days. ATP levels were determined by adding Cell Titer Glo® (Promega) according to the manufacturer's protocol. Briefly, Cell Titer Glo® was added each plate, incubated for 30 minutes then luminescent signal was read on the SpectraMax L plate reader with a 0.5 sec integration time.
(§3) Inhibition of cell growth was estimated after treatment with compound or combination of compounds for three days and comparing the signal to cells treated with vehicle (DMSO). Cell growth was calculated relative to vehicle (DMSO) treated control wells. Concentration of compound that inhibits 50% of control cell growth (IC50) was interpolated when y=50% of the vehicle control using nonlinear regression with the equation, y=(A+(B−A)/(1+(C/x)̂D))), where A is the minimum response (ymin), B is the maximum response (ymax), C is the inflection point of the curve (EC50) and D is the Hill coefficient.
(§4) Combination effects on potency were evaluated using Combination Index (CI) which was calculated with the back-interpolated IC50 values and the mutually non-exclusive equation derived by Chou and Talalay (Chou T C, Talalay P. Quantitative analysis of dose-effect relationships: the combined effects of multiple drugs or enzyme inhibitors. Adv Enzyme Regul 1984; 22:27-55.) A detailed description of the CI is found above. In general, a CI value <0.9, between 0.9 and 1.1, or >1.1 indicates synergy, additivity and antagonism, respectively. In general, the smaller the CI number, the greater is the strength of synergy.
(§5) The combination effects on the response scale were quantified by Excess Over Highest Single Agent (EOHSA) based on the concept of nonlinear blending as described in detail by Peterson and Novick (2007) and Peterson (2010) [Peterson J J, Novick S J. J Recept Signal Transduct Res 2007; 27(2-3):125-46, Peterson J. Frontiers of Bioscience S2, 483-503. 2010] EOHSA values are defined as increases in improvement (here, in ‘percentage points’ (ppts) difference) produced by the combination over the best single agent at its component dose level for the combination. Details on the calculation of EOHSA can be found above. For single agent and combination treatments, cells were exposed to compounds at a fixed-dose-ratio, and dose response curves were fit to the experimental data and analyzed using regression models. At specified total dose levels of IC50 along the dose response curve, the dose combination (corresponding to IC50) was determined for making EOHSA statistical inferences. More specifically, for a combination drug experiment involving drug 1 at dose d1 and drug 2 at dose d2, (i.e., total dose equals d1+d2) is said to have a positive EOHSA if the mean response at the combination is better than the mean response to drug 1 at dose d1 […] drug 2 at dose d2.

[2] = tested on: 16R6-4; assay: as above; conditions: Homo sapiens, 72 h, 16R6-4 (Compound A resistant clone), read-out: IC50, Single Agent (mean ± std)
Method: as §1, §2, §3, §4, §5

[3] = tested on: 12R8-1; assay: as above; conditions: Homo sapiens, 72 h, 12R8-1 (Compound A resistant clone), read-out: IC50, Single Agent (mean ± std)
Method: as §1, §2, §3, §4, §5

[4] = tested on: A375PF11; assay: as above; conditions: Homo sapiens, A375P-F11, 72 h, A375PF11 (BRAF_V600E), read-out: IC50, Single Agent (mean ± std)
Method: as §1, §2, §3, §4, §5

[5] = tested on: 12R5-3; assay: as above; conditions: Homo sapiens, 72 h, 12R5-3 (Compound A resistant clone), read-out: IC50, Single Agent (mean ± std)
Method: as §1, §2, §3, §4, §5

[6] = tested on: 12R5-1; assay: as above; conditions: Homo sapiens, 72 h, 12R5-1 (Compound A resistant clone), read-out: IC50, Single Agent (mean ± std)
Method: as §1, §2, §3, §4, §5

[7] = tested on: 16R6-3; assay: as above; conditions: Homo sapiens, 72 h, 16R6-3 (Compound A resistant clone), read-out: IC50, Single Agent (mean ± std)
Method: as §1, §2, §3, §4, §5

[8] = tested on: 16R5-2; assay: as above; conditions: Homo sapiens, 72 h, 16R5-2 (Compound A resistant clone), read-out: IC50, Single Agent (mean ± std)
Method: as §1, §2, §3, §4, §5

[9] = tested on: seven Compound A resistant clones derived from the A375 PF11 melanoma cell line; assay: Cell Growth Inhibition Assay, summary over resistant clones; conditions: Homo sapiens, A375P-F11, 72 h, 3 days, read-out: IC50s, Compound B alone, range over clones
Method: as §1, §2
Inhibition of cell growth was estimated after treatment with compound or combination of compounds for three days and comparing the signal to cells treated with vehicle (DMSO). Cell growth was calculated relative to vehicle (DMSO) treated control wells. […]

| IC50 [4] [nM] | IC50 [9] [nM] | SMILES | IC50 [1] [nM] | IC50 [2] [nM] | IC50 [3] [nM] | IC50 [5] [nM] | IC50 [6] [nM] | IC50 [7] [nM] | IC50 [8] [nM] |
| --- | --- | --- | --- | --- | --- | --- | --- | --- | --- |
| 59 |  | CC(C)(C)c1nc(-c2cccc(NS(=O)(=O)c3c(F)cccc3F)c2F)c(-c2ccnc(N)n2)s1 [Compound A, N-{3-[5-(2-amino-4-pyrimidinyl)-2-(1,1-dimethylethyl)-1,3-thiazol-4-yl]-2-fluorophenyl}-2,6-difluorobenzenesulfonamide] | > 10000 | > 10000 | > 10000 | > 10000 | > 10000 | > 10000 | > 10000 |
| 48 | 41 to 212 | COc1ncc(-c2ccc3nccc(-c4ccnnc4)c3c2)cc1NS(=O)(=O)c1ccc(F)cc1F [Compound B, 2,4-difluoro-N-{2-(methyloxy)-5-[4-(4-pyridazinyl)-6-quinolinyl]-3-pyridinyl}benzenesulfonamide] | 129 ± 24 | 61 ± 10 | 103 ± 16 | 88 ± 2 | 212 ± 38 | 80 ± 17 | 41 ± 18 |
